Source: the NIST ThermoML archive (doi:10.1016/j.tca.2006.04.016)

Experiment: xn = mol fraction of the nth substance listed
Conditions: 101 kPa, Liquid, Vibrating tube method

CN(C)CCCN [N,N-dimethyl-1,3-propanediamine] + O
mass density [kg/m3]
Conditions	338.15 K	343.15 K	348.15 K	353.15 K
x2 = 0	–	772.29	767.7	763.1
x2 = 0.0403	–	775.35	770.76	766.14
x2 = 0.0811	–	778.48	773.88	769.25
x2 = 0.1198	–	781.64	777.03	772.39
x2 = 0.16	–	785.1	780.49	775.84
x2 = 0.1996	–	788.71	784.09	779.43
x2 = 0.2498	798.22	793.62	788.99	784.32
x2 = 0.2998	803.53	798.93	794.3	789.63
x2 = 0.3499	809.21	804.61	799.97	795.29
x2 = 0.3997	815.49	810.89	806.24	801.55
x2 = 0.4501	822.44	817.83	813.18	808.48
x2 = 0.4998	830.08	825.45	820.79	816.07
x2 = 0.5501	838.71	834.08	829.41	824.69
x2 = 0.5999	848.24	843.6	838.92	834.17
x2 = 0.6498	858.94	854.29	849.59	844.83
x2 = 0.7	871.13	866.47	861.76	857
x2 = 0.7499	884.69	880.03	875.32	870.56
x2 = 0.8	899.72	895.11	890.44	885.71
x2 = 0.84	912.9	908.37	903.78	899.14
x2 = 0.8799	926.91	922.56	918.14	913.67
x2 = 0.9	934.27	930.05	925.79	921.45
x2 = 0.92	941.89	937.89	933.81	929.67
x2 = 0.94	949.91	946.17	942.35	938.45
x2 = 0.9597	958.38	954.98	951.46	947.86
x2 = 0.975	965.78	962.66	959.41	956.07
x2 = 0.99	974.07	971.18	968.15	965.01
